Test results taken from patent publication US12060330B2, “Therapeutic indazoles” (priority 2017, dated 2024).
In brackets after ≈: the same amount, converted by molar mass.

How the values were obtained:
[1] = test system: M. tuberculosis; assay: microbe, parasite or virus in culture; type: cell-based; conditions: for whole-cell activity (in words): SAR relative to DG167; for increase in potency over DG167: relative to DG167
[2] = test system: M. tuberculosis; conditions: cited from earlier work
[3] = test system: M. tuberculosis H37Rv; assay: RNAseq transcriptional profiling; type: cell-based; conditions: single drug, 10× MIC, 4 h
[4] = test system: M. tuberculosis; assay: Killing studies using CFU measurements; type: cell-based
[5] = Kinetic solubility; conditions: pH 7.4 phosphate-buffered saline (PBS)
[6] = molecular target: KasA (Mycobacterium tuberculosis, UniProt P9WQD9); assay: Microscale thermophoresis (MST) binding assay; design: species or system M. tuberculosis; conditions: for EC50: read-out: EC50 (KasA interaction)
Sequence of KasA (P9WQD9 whole entry): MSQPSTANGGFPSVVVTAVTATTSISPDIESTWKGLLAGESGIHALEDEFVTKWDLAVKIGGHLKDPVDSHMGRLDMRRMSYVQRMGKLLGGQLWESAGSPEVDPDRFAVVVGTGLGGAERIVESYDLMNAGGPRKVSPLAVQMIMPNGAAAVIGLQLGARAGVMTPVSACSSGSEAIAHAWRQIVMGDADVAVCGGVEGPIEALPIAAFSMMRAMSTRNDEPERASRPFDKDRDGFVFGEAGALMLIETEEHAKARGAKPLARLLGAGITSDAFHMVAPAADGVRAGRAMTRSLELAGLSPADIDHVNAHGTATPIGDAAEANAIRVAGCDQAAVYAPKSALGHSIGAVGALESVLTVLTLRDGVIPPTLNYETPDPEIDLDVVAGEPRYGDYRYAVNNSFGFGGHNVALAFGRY

[7] = test system: mycolic acid biosynthesis; type: cell-based, M. tuberculosis
[8] = test system: M. avium; assay: MIC against nontuberculous mycobacteria
[9] = test system: M. smegmatis; assay: MIC against nontuberculous mycobacteria
[10] = Mouse pharmacokinetic studies (plasma, LC-MS/MS); type: in vivo; conditions: mice
Procedure: DG1167 levels in plasma were measured by LC-MS/MS in electrospray positive-ionization mode (ESI+) on a Sciex Qtrap 4000 triple-quadrupole mass combined with an Agilent 1260 HPLC using Analyst software. […] Multiple-reaction monitoring (MRM) of parent/daughter transitions in electrospray positive-ionization mode (ESI+) was used to quantify DG167. […] Extracts were vortexed for 5 minutes and centrifuged at 4000 RPM for 5 minutes. The supernatants were analyzed by LC-MS. Verapamil IS was sourced from Sigma-Aldrich.

[11] = test system: CYP enzymes; assay: Cytochrome P450 (CYP) inhibition; conditions: CYP enzymes except CYP2C19
[12] = Mouse liver microsome (MLM) stability
[13] = Dose escalation and drug tolerability in mice; type: in vivo
Procedure: All animal experiments were conducted in compliance with and approved by the Institutional Animal Care and Use Committee of the New Jersey Medical School, Rutgers University.
The mice were weighed and observed daily. Their behavior, drinking and feeding patterns, and feces were monitored and recorded. Upon necropsy, liver, gall bladder, kidney and spleen pathology were observed as well.

[14] = molecular target: CYP2C19 (Homo sapiens, UniProt P33261); assay: Cytochrome P450 (CYP) inhibition; type: in vitro ADME
Sequence of CYP2C19 (P33261 whole entry, species assumed): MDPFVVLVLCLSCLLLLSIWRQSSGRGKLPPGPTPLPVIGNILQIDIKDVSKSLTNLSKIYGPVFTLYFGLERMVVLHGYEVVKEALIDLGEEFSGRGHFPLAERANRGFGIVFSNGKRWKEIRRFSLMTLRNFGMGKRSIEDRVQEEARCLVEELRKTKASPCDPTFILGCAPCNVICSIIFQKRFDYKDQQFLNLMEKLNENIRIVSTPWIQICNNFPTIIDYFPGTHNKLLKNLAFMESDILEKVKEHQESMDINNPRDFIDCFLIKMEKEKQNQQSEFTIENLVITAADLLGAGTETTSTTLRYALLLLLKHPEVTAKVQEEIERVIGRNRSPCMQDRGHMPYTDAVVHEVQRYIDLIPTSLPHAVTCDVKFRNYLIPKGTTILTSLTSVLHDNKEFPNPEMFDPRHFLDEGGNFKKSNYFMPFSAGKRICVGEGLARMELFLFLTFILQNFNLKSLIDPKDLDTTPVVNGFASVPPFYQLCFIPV

[15] = test system: M. abscessus; assay: MIC against nontuberculous mycobacteria
[16] = test system: M. marinum; assay: MIC against nontuberculous mycobacteria
[17] = Caco-2 permeability; conditions: human
[18] = test system: M. fortuitum; assay: MIC against nontuberculous mycobacteria
[19] = test system: M. tuberculosis; assay: Lung CFU in infected mice (FIG. 10, PMID: 25421483); type: in vivo; conditions: compared to INH and vehicle only

## CCCCS(=O)(=O)N(C)c1ccc2cnn(C)c2c1 [Example 32, N-methyl-N-(1-methyl-1H-indazol-6-yl)butane-1-sulfonamide]
[1]
  whole-cell activity (in words): loss of activity

## CC12C[C@@]34C=CC(=O)[C@@](C)(CCC(=O)Nc5c(O)ccc(C(=O)O)c5O)C3[C@H](CC1C4)O2 (stereo partly drawn) [platensimycin]
[2]
  whole-cell activity in M. tuberculosis: 27 µM

## CCCCNC(=S)Nc1ccc2cnn(C)c2c1 [Example 33, 1-Butyl-3-(1-methyl-1H-indazol-6-yl)thiourea]
[1]; Mycobacterium tuberculosis, whole-cell
  MIC: 3.1 µM (≈ 0.813 µg/mL)
[1]
  whole-cell activity (in words): loss of activity

## NNC(=O)c1ccncc1 [INH, isoniazid, reference compound]
[3]
  gene expression change (in words): strongly induced expression of kasA, kasB, acpM genes, the iniBAC operon
[4]; 10× MIC of each drug
  killing pattern (in words): rapid reduction of viable CFU followed by rapid re-growth

## CCCCS(=O)(=O)Nc1ccc2cnn(C)c2c1 [DG167, N-(1-methyl-1H-indazol-6-yl)butane-1-sulfonamide]
[5]
  kinetic solubility: 324 µM (≈ 86.6 µg/mL)
[6]
  EC50: 131 ± 18.2 nM
[7]
  accumulation of FAS-I products: caused accumulation of C16-C26 short-chain fatty-acids
[8]
  MIC: > 100 µM
[9]
  MIC: > 100 µM
[3]
  gene expression change (in words): strongly induced expression of kasA, kasB, acpM genes, the iniBAC operon
[10]; IV 5 mg/kg
  half-life (t1/2): 19.8 min
[10]; IV 5 mg/kg, 5% DMA/40% PEG300/55% D5W
  AUC [0-t]: 1751.25 ng·h/mL
[10]; PO 25 mg/kg, 0.5% CMC/0.5% Tween 80, plasma
  AUC [0-t]: 8083.96 ng·h/mL
[10]; single oral dose 25 mg/kg
  time plasma levels maintained above the MIC: over 4 hours
[10]; single oral dose 25 mg/kg, plasma
  AUC [0-t]: 8083.96 h*ng/m
[11]
  CYP inhibition (in words): did not significantly inhibit
[4]; 10× or 20× MIC, over seven days
  reduction of viable colony-forming units (CFU): 2 log 10
[12]; in the absence of NADPH
  MLM t1/2: > 300 min
[12]; mouse liver microsomes
  MLM t1/2: 10.1 min
[13]; 50 and 100 mg/kg, monitored 8 hours
  tolerability, dose escalation: well tolerated
[13]; 5 d, DG167 50 or 100 mg/kg, or DG167 100 mg/kg with INH 25 mg/kg
  dose tolerability for 5 d: did not show any behavioral changes or weight loss
[13]; higher doses (250, 500 mg/kg)
  tolerability, dose escalation: heavy breathing, hunched posture and decreased activity
[14]
  IC50: 12000 nM
[15]
  MIC: > 100 µM
[16]
  MIC: > 100 µM
[17]
  Papp A→B: 71.8 ×10⁻⁶ cm/s
  Papp B→A: 45.6 ×10⁻⁶ cm/s
[18]
  MIC: > 100 µM

## [2H]C([2H])([2H])n1ncc2ccc(NS(=O)(=O)CCCCC)cc21 [Example 30, N-(1-(methyl-d3)-1H-indazol-6-yl)pentane-1-sulfonamide]
[1]
  whole-cell activity (in words): increased the activity over the parent by twofold
  increase in potency over DG167: 2 fold

## CCCCCCS(=O)(=O)Nc1ccc2cnn(C)c2c1 [Example 12, N-(1-methyl-1H-Indazol-6-yl)hexane-1-sulfonamide]
[1]
  whole-cell activity (in words): inactive

## Cc1n[nH]c2ccc(NS(=O)(=O)CCCCF)cc12 [Example 43, 4-Fluoro-N-(3-methyl-1H-indazol-5-yl)butane-1-sulfonamide]
[19]
  M. tuberculosis colony-forming units in the lungs: reduction of M. tuberculosis colony-forming units in the lungs

## CCCCCS(=O)(=O)Nc1ccc2cnn(C)c2c1 [Example 11, N-(1-methyl-1H-indazol-6-yl)pentane-1-sulfonamide]
[1]
  whole-cell activity (in words): increased the activity over the parent by twofold
  increase in potency over DG167: 2 fold

## C=C/C(C)=C/[C@@]1(C)SC(=O)C(C)=C1O [thiolactomycin]
[2]
  whole-cell activity in M. tuberculosis: 142 µM

## [2H]C([2H])([2H])n1ncc2ccc(NS(=O)(=O)CCCC)cc21 [Example 29, N-(1-(methyl-d3)-1H-indazol-6-yl)butane-1-sulfonamide]
[12]; mouse liver microsomes
  MLM t1/2: 16.8 min

## CCCCS(=O)(=O)Nc1ccc2cn[nH]c2c1 [Example 1, N-(1H-indazol-6-yl)butane-1-sulfonamide]
[6]
  EC50: 1740 ± 221 nM
[7]
  inhibition of mycolic acid biosynthesis: did not show any inhibition

## CCCCS(=O)(=O)Nc1ccc2[nH]nc(C)c2c1 [Example 41, N-(3-methyl-1H-indazol-5-yl)butane-1-sulfonamide]
[6]
  Kd: 46.5 ± 18.7 nM
[1]
  improvement over DG167 in MIC / whole-cell activity: 2 ×
